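A five-concentration, 48-hour dose response in 96-well plates underlies each endpoint, interpolated linearly between surrounding concentrations. GI50 marks 50% less growth. TGI denotes the concentration required for complete inhibition of growth.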
Assays:
Assay in all cases: growth of human tumour cells (NCI), 48 h
CCRF-CEM leukemia = test system: CCRF-CEM leukemia
MDA-MB-435 = test system: MDA-MB-435
MDA-MB-231 breast = test system: MDA-MB-231 breast
LOX IMVI melanoma = test system: LOX IMVI melanoma
HL-60(TB) leukemia = test system: HL-60(TB) leukemia
EKVX NSCLC = test system: EKVX NSCLC
MOLT-4 leukemia = test system: MOLT-4 leukemia
SNB-19 CNS = test system: SNB-19 CNS
A498 renal = test system: A498 renal
SW-620 colon = test system: SW-620 colon
BT-549 breast = test system: BT-549 breast
OVCAR-5 ovarian = test system: OVCAR-5 ovarian
SK-OV-3 ovarian = test system: SK-OV-3 ovarian
DU-145 prostate = test system: DU-145 prostate
UACC-257 melanoma = test system: UACC-257 melanoma
OVCAR-8 ovarian = test system: OVCAR-8 ovarian
CAKI-1 renal = test system: CAKI-1 renal
RPMI-8226 leukemia = test system: RPMI-8226 leukemia
HCC-2998 colon = test system: HCC-2998 colon
SF-295 CNS = test system: SF-295 CNS
HCT-15 colon = test system: HCT-15 colon
HOP-62 NSCLC = test system: HOP-62 NSCLC
MALME-3M melanoma = test system: MALME-3M melanoma
SNB-75 CNS = test system: SNB-75 CNS
SN12C renal = test system: SN12C renal
RXF 393 renal = test system: RXF 393 renal
UACC-62 melanoma = test system: UACC-62 melanoma
M14 melanoma = test system: M14 melanoma
HOP-92 NSCLC = test system: HOP-92 NSCLC
NCI/ADR-RES ovarian = test system: NCI/ADR-RES ovarian
SK-MEL-2 melanoma = test system: SK-MEL-2 melanoma
ACHN renal = test system: ACHN renal
PC-3 prostate = test system: PC-3 prostate
SK-MEL-5 melanoma = test system: SK-MEL-5 melanoma
NCI-H226 lung = test system: NCI-H226 lung
SF-268 CNS = test system: SF-268 CNS
T-47D breast = test system: T-47D breast
COLO 205 colon = test system: COLO 205 colon
HS 578T breast = test system: HS 578T breast
UO-31 renal = test system: UO-31 renal
KM12 colon = test system: KM12 colon
OVCAR-4 ovarian = test system: OVCAR-4 ovarian
A549 NSCLC = test system: A549 NSCLC
SK-MEL-28 melanoma = test system: SK-MEL-28 melanoma
HCT-116 colon = test system: HCT-116 colon
NCI-H522 lung = test system: NCI-H522 lung
HT29 colon = test system: HT29 colon
MCF7 breast = test system: MCF7 breast
OVCAR-3 ovarian = test system: OVCAR-3 ovarian
TK-10 renal = test system: TK-10 renal
NCI-H23 lung = test system: NCI-H23 lung
786-0 renal = test system: 786-0 renal
K-562 leukemia = test system: K-562 leukemia
IGROV1 ovarian = test system: IGROV1 ovarian
U251 CNS = test system: U251 CNS
NCI-H460 lung = test system: NCI-H460 lung
SF-539 CNS = test system: SF-539 CNS

COc1cc2c(cc1OCCCCCN1CCN(c3cc(=O)oc4ccccc34)CC1)N=C[C@@H]1CCCN1C2=O
GI50 (CCRF-CEM leukemia): 124 nM | TGI (CCRF-CEM leukemia): 364 nM | GI50 (MDA-MB-435): 183 nM | TGI (MDA-MB-435): 425 nM | GI50 (MDA-MB-231 breast): 27.7 nM | TGI (MDA-MB-231 breast): 730 nM | GI50 (LOX IMVI melanoma): < 38.7 nM | TGI (LOX IMVI melanoma): 450 nM | GI50 (HL-60(TB) leukemia): < 45.3 nM | TGI (HL-60(TB) leukemia): 1120 nM | GI50 (EKVX NSCLC): 848 nM | TGI (EKVX NSCLC): 4650 nM | GI50 (MOLT-4 leukemia): 11.7 nM | TGI (MOLT-4 leukemia): 1410 nM | GI50 (SNB-19 CNS): 294 nM | TGI (SNB-19 CNS): 12500 nM | GI50 (A498 renal): 220 nM | TGI (A498 renal): 488 nM | GI50 (SW-620 colon): 242 nM | TGI (SW-620 colon): 6660 nM | GI50 (BT-549 breast): 158 nM | TGI (BT-549 breast): 778 nM | GI50 (OVCAR-5 ovarian): 407 nM | TGI (OVCAR-5 ovarian): 18600 nM | GI50 (SK-OV-3 ovarian): 821 nM | TGI (SK-OV-3 ovarian): > 41300 nM | GI50 (DU-145 prostate): 221 nM | TGI (DU-145 prostate): 3550 nM | GI50 (UACC-257 melanoma): 1590 nM | TGI (UACC-257 melanoma): 5690 nM | GI50 (OVCAR-8 ovarian): 293 nM | TGI (OVCAR-8 ovarian): 19900 nM | GI50 (CAKI-1 renal): 556 nM | TGI (CAKI-1 renal): 1860 nM | GI50 (RPMI-8226 leukemia): < 39 nM | TGI (RPMI-8226 leukemia): 285 nM | GI50 (HCC-2998 colon): 176 nM | TGI (HCC-2998 colon): 398 nM | GI50 (SF-295 CNS): 331 nM | TGI (SF-295 CNS): 3160 nM | GI50 (HCT-15 colon): 1020 nM | TGI (HCT-15 colon): 7270 nM | GI50 (HOP-62 NSCLC): 151 nM | TGI (HOP-62 NSCLC): 438 nM | GI50 (MALME-3M melanoma): 219 nM | TGI (MALME-3M melanoma): 536 nM | TGI (SNB-75 CNS): 343 nM | GI50 (SN12C renal): 182 nM | TGI (SN12C renal): 664 nM | GI50 (RXF 393 renal): 62.9 nM | TGI (RXF 393 renal): 253 nM | GI50 (UACC-62 melanoma): 186 nM | TGI (UACC-62 melanoma): 383 nM | GI50 (M14 melanoma): 96.5 nM | TGI (M14 melanoma): 338 nM | TGI (HOP-92 NSCLC): 178 nM | GI50 (NCI/ADR-RES ovarian): 1910 nM | TGI (NCI/ADR-RES ovarian): > 22000 nM | GI50 (SK-MEL-2 melanoma): 198 nM | TGI (SK-MEL-2 melanoma): 533 nM | GI50 (ACHN renal): 461 nM | TGI (ACHN renal): 2550 nM | GI50 (PC-3 prostate): 91.8 nM | TGI (PC-3 prostate): 2340 nM | GI50 (SK-MEL-5 melanoma): 206 nM | TGI (SK-MEL-5 melanoma): 481 nM | GI50 (NCI-H226 lung): 184 nM | TGI (NCI-H226 lung): 485 nM | TGI (SF-268 CNS): 2470 nM | TGI (T-47D breast): 2280 nM | GI50 (COLO 205 colon): 42.2 nM | TGI (COLO 205 colon): 280 nM | GI50 (HS 578T breast): 201 nM | TGI (HS 578T breast): 1840 nM | GI50 (UO-31 renal): 690 nM | TGI (UO-31 renal): 11400 nM | GI50 (KM12 colon): 268 nM | TGI (KM12 colon): 1380 nM | GI50 (OVCAR-4 ovarian): 358 nM | TGI (OVCAR-4 ovarian): 1710 nM | GI50 (A549 NSCLC): 2560 nM | TGI (A549 NSCLC): 11500 nM | GI50 (SK-MEL-28 melanoma): 437 nM | TGI (SK-MEL-28 melanoma): 1340 nM | GI50 (HCT-116 colon): 88.9 nM | TGI (HCT-116 colon): 336 nM | GI50 (NCI-H522 lung): < 42.8 nM | TGI (NCI-H522 lung): 170 nM | GI50 (HT29 colon): 84.1 nM | TGI (HT29 colon): 610 nM | GI50 (MCF7 breast): 93 nM | TGI (MCF7 breast): 4950 nM | GI50 (OVCAR-3 ovarian): 263 nM | TGI (OVCAR-3 ovarian): 653 nM | GI50 (TK-10 renal): 175 nM | TGI (TK-10 renal): 13000 nM | GI50 (NCI-H23 lung): 262 nM | TGI (NCI-H23 lung): 1100 nM | GI50 (786-0 renal): 147 nM | TGI (786-0 renal): 468 nM | GI50 (K-562 leukemia): < 41.1 nM | TGI (K-562 leukemia): 3060 nM | GI50 (IGROV1 ovarian): 83 nM | TGI (IGROV1 ovarian): 401 nM | GI50 (U251 CNS): 63.3 nM | TGI (U251 CNS): 2320 nM | GI50 (NCI-H460 lung): 131 nM | TGI (NCI-H460 lung): 9990 nM | GI50 (SF-539 CNS): 232 nM | TGI (SF-539 CNS): 907 nM
